Here are results for 4 sequences from patent US20070128217A1 (priority 2003, published 2007).

In assay [1] the test system is rabbit serum obtained by immunizing a rabbit with the SARS-CoV strain Frankfurt 1. Type of assay: binding. Details: Binding of a rabbit serum to linear peptides / Binding of a rabbit serum to looped peptides / Rabbit serum linear peptides / Rabbit serum looped peptides / Binding of a rabbit serum to linear peptides of protein N of SARS-CoV Urbani (Rabbit serum linear peptides) / Binding of a rabbit serum to looped/cyclic peptides of protein N of SARS-CoV Urbani (Rabbit serum looped peptides): unit not given here.

The subject of assay [2] is control sera (pooled serum of ten healthy LUMC hospital workers; commercial negative donor pooled serum from the Dutch bloodbank). The assay is classed as binding, human. Also noted: Binding of Control serum LUMC to linear peptides / Binding of Control serum Blood-bank to linear peptides / Binding of Control serum LUMC to looped peptides / Binding of Control Serum Blood-Bank to Looped peptides / Binding of Control serum LUMC to linear peptides of the protein M of SARS-CoV Urbani / Binding of Control serum Blood-bank to linear peptides of the protein M of SARS-CoV Urbani / Binding of Control serum LUMC to looped peptides of the protein M of SARS-CoV Urbani / Binding of Control Serum Blood-Bank to Looped peptides of the protein M of SARS-CoV Urbani: unit not given here.

The subject of assay [3] is antibodies in sera from SARS patients (sera 1a, 1b, 2, 6, 37, 62, London, SARS-yellow, SARS-green). The assay is classed as binding, human. Also noted: Binding of serum 6 to linear peptides of protein X1 of SARS-CoV Urbani / Binding of serum 37 to linear peptides of protein X1 of SARS-CoV Urbani / Binding of serum 6 to looped/cyclic peptide (PEPSCAN-ELISA) / Binding of serum 37 to looped/cyclic peptide (PEPSCAN-ELISA) / Binding of serum 37 to looped/cyclic peptides of protein X1 of SARS-CoV Urbani / Binding of serum 6 to linear peptides of protein X2 / Binding of serum 37 to linear peptides of protein X2 / Binding of serum 37 to looped/cyclic peptides of protein X2 of SARS-CoV Urbani / Binding of serum 6 to linear peptides of protein M of SARS-CoV Urbani / Binding of serum 37 to linear peptides of protein M of SARS-CoV Urbani / Binding of serum 6 to looped/cyclic peptides of protein M of SARS-CoV Urbani / Binding of serum 37 to looped/cyclic peptides of protein M of SARS-CoV Urbani / Binding of serum 6 to linear peptides of protein X3 of SARS-CoV Urbani / Binding of serum 37 to linear peptides of protein X3 of SARS-CoV Urbani / Binding of serum 37 to looped/cyclic peptides of protein X3 of SARS-CoV Urbani / Binding of serum 6 to linear peptides of protein X4 of SARS-CoV Urbani / Binding of serum 37 to linear peptides of protein X4 of SARS-CoV Urbani / Binding of serum 37 to looped/cyclic peptides of protein X4 of SARS-CoV Urbani / Binding of serum 6 to linear peptides of protein X5 of SARS-CoV Urbani / Binding of serum 37 to linear peptides of protein X5 of SARS-CoV Urbani / Binding of serum 37 to looped/cyclic peptides of protein X5 of SARS-CoV Urbani / Binding of serum 6 to linear peptides of protein N of SARS-CoV Urbani / Binding of serum 37 to linear peptides of protein N of SARS-CoV Urbani / Binding of serum 6 to linear peptide (PEPSCAN-ELISA) / Binding of serum 1a to looped/cyclic peptides of protein N of SARS-CoV Urbani / Binding of serum 1b to looped/cyclic peptides of protein N of SARS-CoV Urbani / Binding of serum 2 to looped/cyclic peptides of protein N of SARS-CoV Urbani / Binding of serum 6 to looped/cyclic peptides of protein N of SARS-CoV Urbani / Binding of serum 37 to looped/cyclic peptides of protein N of SARS-CoV Urbani / Binding of serum 62 to looped/cyclic peptides of protein N of SARS-CoV Urbani / Binding of serum London to looped/cyclic peptides of protein N of SARS-CoV Urbani / Binding of serum SARS-green to looped/cyclic peptides of protein N of SARS-CoV Urbani: unit not given here.

Take ACFVLAAVYRINWVT: in assay [1], the “Rabbit serum linear peptides” value was determined as 0.4 and the “Rabbit serum looped peptides” value was 0.3. In assay [2], the “Binding of Control Serum Blood-Bank to Looped peptides of the protein M of SARS-CoV Urbani” value was 0.7, the “Binding of Control serum Blood-bank to linear peptides of the protein M of SARS-CoV Urbani” value worked out at 0.7, the “Binding of Control serum LUMC to linear peptides of the protein M of SARS-CoV Urbani” value came out at 0.3 and the “Binding of Control serum LUMC to looped peptides of the protein M of SARS-CoV Urbani” value was determined as 0.7. In assay [3], the “Binding of serum 1a to linear peptides of protein M of SARS-CoV Urbani” value is listed as 0.7, the “Binding of serum 1a to looped/cyclic peptides of protein M of SARS-CoV Urbani” value amounted to 0.7, the “Binding of serum 1b to linear peptides of protein M of SARS-CoV Urbani” value turned out to be 0.6 and the “Binding of serum 1b to looped/cyclic peptides of protein M of SARS-CoV Urbani” value came out at 0.7. For the same sequence, in assay [3], the “Binding of serum 2 to linear peptides of protein M of SARS-CoV Urbani” value stood at 0.5, the “Binding of serum 2 to looped/cyclic peptides of protein M of SARS-CoV Urbani” value is 0.5, the “Binding of serum 6 to linear peptides of protein M of SARS-CoV Urbani” value was 0.3 and the “Binding of serum 6 to looped/cyclic peptides of protein M of SARS-CoV Urbani” value was determined as 1.0. Further, in assay [3], the “Binding of serum 37 to linear peptides of protein M of SARS-CoV Urbani” value was 0.8, the “Binding of serum 37 to looped/cyclic peptides of protein M of SARS-CoV Urbani” value came to 0.7, the “Binding of serum 62 to linear peptides of protein M of SARS-CoV Urbani” value turned out to be 0.9 and the “Binding of serum 62 to looped/cyclic peptides of protein M of SARS-CoV Urbani” value is given as 0.6. Moreover, in assay [3], the “Binding of serum London to linear peptides of protein M of SARS-CoV Urbani” value is on record as 0.3, the “Binding of serum London to looped/cyclic peptides of protein M of SARS-CoV Urbani” value worked out at 0.3, the “Binding of serum SARS-green to linear peptides of protein M of SARS-CoV Urbani” value was determined as 0.3 and the “Binding of serum SARS-green to looped/cyclic peptides of protein M of SARS-CoV Urbani” value is given as 0.3. In assay [3], the “Binding of serum SARS-yellow to linear peptides of protein M of SARS-CoV Urbani” value is on record as 0.0 and the “Binding of serum SARS-yellow to looped/cyclic peptides of protein M of SARS-CoV Urbani” value is listed as 0.5.

ACLCKHKKVSTNLCT: in assay [1], the “Binding of a rabbit serum to linear peptides” value came out at 0.3 and the “Binding of a rabbit serum to looped peptides” value came to 0.3. In assay [2], the “Binding of Control Serum Blood-Bank to Looped peptides” value was determined as 0.2, the “Binding of Control serum Blood-bank to linear peptides” value came out at 0.9, the “Binding of Control serum LUMC to linear peptides” value was found to be 0.8 and the “Binding of Control serum LUMC to looped peptides” value amounted to 0.3. For the same sequence, in assay [3], the “Binding of serum 1a to looped/cyclic peptides of protein X2 of SARS-CoV Urbani” value is given as 0.3, the “Binding of serum 1b to looped/cyclic peptides of protein X2 of SARS-CoV Urbani” value was found to be 0.3, the “Binding of serum 2 to looped/cyclic peptides of protein X2 of SARS-CoV Urbani” value came to 0.2 and the “Binding of serum 6 to looped/cyclic peptides of protein X2 of SARS-CoV Urbani” value amounted to 0.2. In assay [3], the “Binding of serum 37 to looped/cyclic peptides of protein X2 of SARS-CoV Urbani” value is listed as 0.3, the “Binding of serum 62 to looped/cyclic peptides of protein X2 of SARS-CoV Urbani” value is given as 0.4, the “Binding of serum London to looped/cyclic peptides of protein X2 of SARS-CoV Urbani” value is 0.2 and the “Binding of serum SARS-green to looped/cyclic peptides of protein X2 of SARS-CoV Urbani” value is on record as 0.3. In assay [3], the “Binding of serum SARS-yellow to looped/cyclic peptides of protein X2 of SARS-CoV Urbani” value stood at 0.3; the “Recognition of the peptide by sera of SARS-CoV infected individuals, and form (linear, looped/cyclic) in which it is recognized” value was “recognized in linear form”.

As for AFLAVFQSATKIIAL, in assay [1], the “Binding of a rabbit serum to linear peptides” value was 0.2 and the “Binding of a rabbit serum to looped peptides” value is given as 0.8. In assay [2], the “Binding of Control Serum Blood-Bank to Looped peptides” value is given as 0.7, the “Binding of Control serum Blood-bank to linear peptides” value was 0.5, the “Binding of Control serum LUMC to linear peptides” value is 0.5 and the “Binding of Control serum LUMC to looped peptides” value stood at 0.6. Also, in assay [3], the “Binding of serum 1a to linear peptides of protein X1 of SARS-CoV Urbani” value worked out at 0.7, the “Binding of serum 1a to looped/cyclic peptide (PEPSCAN-ELISA)” value is reported as 0.5, the “Binding of serum 1b to linear peptides of protein X1 of SARS-CoV Urbani” value was 0.4 and the “Binding of serum 1b to looped/cyclic peptide (PEPSCAN-ELISA)” value was 0.4. Further, in assay [3], the “Binding of serum 2 to linear peptides of protein X1 of SARS-CoV Urbani” value is on record as 0.5, the “Binding of serum 2 to looped/cyclic peptide (PEPSCAN-ELISA)” value amounted to 0.5, the “Binding of serum 6 to linear peptides of protein X1 of SARS-CoV Urbani” value amounted to 0.4 and the “Binding of serum 6 to looped/cyclic peptide (PEPSCAN-ELISA)” value was found to be 1.3. In assay [3], the “Binding of serum 37 to linear peptides of protein X1 of SARS-CoV Urbani” value stood at 0.6, the “Binding of serum 37 to looped/cyclic peptide (PEPSCAN-ELISA)” value turned out to be 0.6, the “Binding of serum 62 to linear peptides of protein X1 of SARS-CoV Urbani” value turned out to be 0.5 and the “Binding of serum 62 to looped/cyclic peptide (PEPSCAN-ELISA)” value was 0.6. Also, in assay [3], the “Binding of serum London to linear peptides of protein X1 of SARS-CoV Urbani” value turned out to be 0.2, the “Binding of serum London to looped/cyclic peptide (PEPSCAN-ELISA)” value came out at 1.6, the “Binding of serum SARS-green to linear peptides of protein X1 of SARS-CoV Urbani” value was determined as 0.3 and the “Binding of serum SARS-green to looped/cyclic peptide (PEPSCAN-ELISA)” value came to 0.3. Further, in assay [3], the “Binding of serum SARS-yellow to linear peptides of protein X1 of SARS-CoV Urbani” value amounted to 0.3 and the “Binding of serum SARS-yellow to looped/cyclic peptide (PEPSCAN-ELISA)” value was found to be 0.6.

As for AFQHQNSKKTTKLVV, in assay [1], the “Recognition of the peptide by the rabbit serum” value was “recognized”. In assay [2], the “Binding of Control Serum Blood-Bank to Looped peptides” value came out at 0.7, the “Binding of Control serum Blood-bank to linear peptides” value came out at 0.6, the “Binding of Control serum LUMC to linear peptides” value is 0.7 and the “Binding of Control serum LUMC to looped peptides” value is given as 0.6. Also, in assay [3], the “Binding of serum 1a to linear peptides of protein X2” value is on record as 0.6, the “Binding of serum 1a to looped/cyclic peptides of protein X2 of SARS-CoV Urbani” value worked out at 0.5, the “Binding of serum 1b to linear peptides of protein X2” value turned out to be 0.5 and the “Binding of serum 1b to looped/cyclic peptides of protein X2 of SARS-CoV Urbani” value was 0.5. In addition, in assay [3], the “Binding of serum 2 to linear peptides of protein X2” value is 0.6, the “Binding of serum 2 to looped/cyclic peptides of protein X2 of SARS-CoV Urbani” value is on record as 0.4, the “Binding of serum 6 to linear peptides of protein X2” value is 0.9 and the “Binding of serum 6 to looped/cyclic peptides of protein X2 of SARS-CoV Urbani” value turned out to be 0.4. Besides, in assay [3], the “Binding of serum 37 to linear peptides of protein X2” value was determined as 0.8, the “Binding of serum 37 to looped/cyclic peptides of protein X2 of SARS-CoV Urbani” value is reported as 0.5, the “Binding of serum 62 to linear peptides of protein X2” value is 0.4 and the “Binding of serum 62 to looped/cyclic peptides of protein X2 of SARS-CoV Urbani” value was found to be 0.6. In assay [3], the “Binding of serum London to linear peptides of protein X2” value is listed as 0.4, the “Binding of serum London to looped/cyclic peptides of protein X2 of SARS-CoV Urbani” value is recorded as 0.2, the “Binding of serum SARS-green to linear peptides of protein X2” value was 0.2 and the “Binding of serum SARS-green to looped/cyclic peptides of protein X2 of SARS-CoV Urbani” value turned out to be 0.3. In assay [3], the “Binding of serum SARS-yellow to linear peptides of protein X2” value was determined as 0.7 and the “Binding of serum SARS-yellow to looped/cyclic peptides of protein X2 of SARS-CoV Urbani” value worked out at 0.5.
